System: Epstein-Barr virus (EBV)
Assay: EBV reactivation (viral BZLF1 gene expression) inhibition
Assay type: cell-based
Conditions: 3 mM; compared to low expression in unactivated cells
Description: FIG. 20B illustrates EBV reactivation in the presence of the curcuminoids shown in FIG. 28A, measured by increased viral BZLF1 gene expression, is induced with a known reactivating drug, sodium butyrate (3 mM) compared to low expression in unactivated cells, in accordance with various embodiments. EBV reactivation was inhibited by five novel curcuminoids (10 μM).

SMILES: CCCC(=O)[O-].[Na+] [sodium butyrate]
- EBV reactivation, measured by increased viral BZLF1 gene expression: induced

— US12595222B2, “Curcuminoids, analogs thereof, and methods of making the same” (WiSys Technology Foundation, Inc., priority 2021, dated 2026)
